Laboratory results: the supplement of paper PMC11061612

Assays:
AZD2811 = compound: CCN(CCO)CCCOc1ccc2c(Nc3cc(CC(=O)Nc4cccc(F)c4)[nH]n3)ncnc2c1 [AZD2811]; details: max 1 µM
How it was run: (§1)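 Cancer cell lines were seeded in 1536-well plates in 7.5 μl DMEM/F12 or RPMI with 10% FBS, held 24 hours at 37°C and 5% CO2, then dosed for 72 hours (final DMSO typically 0.2%). Viability was read by CellTiter-Glo 2.0 luminescence and scaled between blank-well and DMSO-well means. The single-agent IC50 comes from dose responses fitted to a two-parameter logistic curve with a non-linear mixed effects model.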

AZD5991 = compound: Cc1c2c(nn1C)CSCc1cc(n(C)n1)CSc1cc(c3ccccc3c1)OCCCc1c(C(=O)O)n(C)c3c-2c(Cl)ccc13 [AZD5991]; details: max 1 µM
How it was run: as §1

Gefitinib = compound: COc1cc2ncnc(Nc3ccc(F)c(Cl)c3)c2cc1OCCCN1CCOCC1 [Gefitinib]; details: max 10 µM
How it was run: as §1

AZD5153 = compound: COc1nnc2ccc(N3CCC(c4ccc(OCCN5CCN(C)C(=O)[C@H]5C)cc4)CC3)nn12 [AZD5153]; details: max 1 µM
How it was run: as §1

SN-38 = compound: CCc1c2c(nc3ccc(O)cc13)-c1cc3c(c(=O)n1C2)COC(=O)[C@]3(O)CC [SN-38]; details: max 0.3 µM
How it was run: as §1

Lapatinib = compound: CS(=O)(=O)CCNCc1ccc(-c2ccc3ncnc(Nc4ccc(OCc5cccc(F)c5)c(Cl)c4)c3c2)o1 [Lapatinib]; details: max 10 µM
How it was run: as §1

Prexasertib = compound: COc1cccc(OCCCN)c1-c1cc(Nc2cnc(C#N)cn2)n[nH]1 [Prexasertib]; details: max 1 µM
How it was run: as §1

Doxorubicin = compound: COc1cccc2c1C(=O)c1c(O)c3c(c(O)c1C2=O)C[C@@](O)(C(=O)CO)C[C@@H]3O[C@H]1C[C@H](N)[C@H](O)[C@H](C)O1 [Doxorubicin]; details: max 1 µM
How it was run: as §1

AZD7648 = compound: Cc1cc2ncnn2cc1Nc1ncc2c(n1)n(C1CCOCC1)c(=O)n2C [AZD7648]; details: max 10 µM
How it was run: as §1

Venetoclax = compound: CC1(C)CCC(CN2CCN(c3ccc(C(=O)NS(=O)(=O)c4ccc(NCC5CCOCC5)c([N+](=O)[O-])c4)c(Oc4cnc5[nH]ccc5c4)c3)CC2)=C(c2ccc(Cl)cc2)C1 [Venetoclax]; details: max 1 µM
How it was run: as §1

Dasatinib = compound: CC1=C(C(=CC=C1)Cl)NC(=O)C2=CN=C(S2)NC3=CC(=NC(=N3)C)N4CCN(CC4)CCO [Dasatinib]; details: max 2 µM
How it was run: as §1

Crizotinib = compound: C[C@@H](Oc1cc(-c2cnn(C3CCNCC3)c2)cnc1N)c1c(Cl)ccc(F)c1Cl [Crizotinib]; details: max 10 µM
How it was run: as §1

Capivasertib = compound: C1CN(CCC1(C(=O)N[C@@H](CCO)C2=CC=C(C=C2)Cl)N)C3=NC=NC4=C3C=CN4 [Capivasertib]; details: max 10 µM
How it was run: as §1

AZD6738 = compound: C[C@@H]1COCCN1C2=NC(=NC(=C2)C3(CC3)[S@](=N)(=O)C)C4=C5C=CNC5=NC=C4 [AZD6738]; details: max 10 µM
How it was run: as §1

Taselisib = compound: Cc1nc(-c2cn3c(n2)-c2ccc(-c4cnn(C(C)(C)C(N)=O)c4)cc2OCC3)n(C(C)C)n1 [Taselisib]; details: max 10 µM
How it was run: as §1

AZD4320 = compound: CN(CC[C@H](CSC1=CC=CC=C1)NC2=C(C=C(C=C2)S(=O)(=O)NC(=O)C3=CC=C(C=C3)N4CCC(CC4)[C@H](C5=CC=CC=C5C6=CC=C(C=C6)Cl)O)S(=O)(=O)C(F)(F)F)CCO [AZD4320]; details: max 1 µM
How it was run: as §1

AZD0156 = compound: CN(C)CCCOc1ccc(-c2ccc3ncc4c(c3c2)n(C2CCOCC2)c(=O)n4C)cn1 [AZD0156]; details: max 3 µM
How it was run: as §1

Savolitinib = compound: C[C@@H](c1ccc2nccn2c1)n1nnc2ncc(-c3cnn(C)c3)nc21 [Savolitinib]; details: max 1 µM
How it was run: as §1

Selumetinib = compound: Cn1cnc2c(F)c(Nc3ccc(Br)cc3Cl)c(C(=O)NOCCO)cc21 [Selumetinib]; details: max 10 µM
How it was run: as §1

Alisertib = compound: COc1cc(Nc2ncc3c(n2)-c2ccc(Cl)cc2C(c2c(F)cccc2OC)=NC3)ccc1C(=O)O [Alisertib]; details: max 10 µM
How it was run: as §1

SG3199 = compound: CC1=CN2[C@@H](C1)C=NC3=CC(=C(C=C3C2=O)OC)OCCCCCOC4=C(C=C5C(=C4)N=C[C@@H]6CC(=CN6C5=O)C)OC [SG3199]; details: max 0.001 µM
How it was run: as §1

AZD1390 = compound: CC(C)n1c(=O)n(C)c2cnc3cc(F)c(-c4ccc(OCCCN5CCCCC5)nc4)cc3c21 [AZD1390]; details: max 0.3 µM
How it was run: as §1

Trametinib = compound: CC(=O)Nc1cccc(-n2c(=O)n(C3CC3)c(=O)c3c(Nc4ccc(I)cc4F)n(C)c(=O)c(C)c32)c1 [Trametinib]; details: max 1 µM
How it was run: as §1

Palbociclib = compound: CC(=O)c1c(C)c2cnc(Nc3ccc(N4CCNCC4)cn3)nc2n(C2CCCC2)c1=O [Palbociclib]; details: max 10 µM
How it was run: as §1

AZD8186 = compound: C[C@@H](Nc1cc(F)cc(F)c1)c1cc(C(=O)N(C)C)cc2c(=O)cc(N3CCOCC3)oc12 [AZD8186]; details: max 3 µM
How it was run: as §1

AZD1775 = compound: C=CCn1c(=O)c2cnc(Nc3ccc(N4CCN(C)CC4)cc3)nc2n1-c1cccc(C(C)(C)O)n1 [AZD1775]; details: max 3 µM
How it was run: as §1

Olaparib = compound: O=C(c1cc(Cc2n[nH]c(=O)c3ccccc23)ccc1F)N1CCN(C(=O)C2CC2)CC1 [Olaparib]; details: max 10 µM
How it was run: as §1

MK-2206 = compound: NC1(c2ccc(-c3nc4ccn5c(=O)[nH]nc5c4cc3-c3ccccc3)cc2)CCC1 [MK-2206]; details: max 10 µM
How it was run: as §1

Cell Line: MS751 (Cervical Carcinoma)
- IC50, cell viability 72 h (AZD2811): > 1000 nM
- IC50, cell viability 72 h (AZD5991): 222 nM
- IC50, cell viability 72 h (Gefitinib): > 10000 nM
- IC50, cell viability 72 h (AZD5153): 200 nM
- IC50, cell viability 72 h (SN-38): 36.8 nM
- IC50, cell viability 72 h (Lapatinib): > 10000 nM
- IC50, cell viability 72 h (Prexasertib): > 1000 nM
- IC50, cell viability 72 h (Doxorubicin): > 1000 nM
- IC50, cell viability 72 h (AZD7648): > 10000 nM
- IC50, cell viability 72 h (Venetoclax): > 1000 nM
- IC50, cell viability 72 h (Dasatinib): > 2000 nM
- IC50, cell viability 72 h (Crizotinib): > 10000 nM
- IC50, cell viability 72 h (Capivasertib): > 10000 nM
- IC50, cell viability 72 h (AZD6738): > 10000 nM
- IC50, cell viability 72 h (Taselisib): > 10000 nM
- IC50, cell viability 72 h (AZD4320): > 1000 nM
- IC50, cell viability 72 h (AZD0156): > 3000 nM
- IC50, cell viability 72 h (Savolitinib): > 1000 nM
- IC50, cell viability 72 h (Selumetinib): > 10000 nM
- IC50, cell viability 72 h (Alisertib): 1130 nM
- IC50, cell viability 72 h (SG3199): > 1 nM
- IC50, cell viability 72 h (AZD1390): > 300 nM
- IC50, cell viability 72 h (Trametinib): > 1000 nM
- IC50, cell viability 72 h (Palbociclib): > 10000 nM
- IC50, cell viability 72 h (AZD8186): > 3000 nM
- IC50, cell viability 72 h (AZD1775): 1620 nM
- IC50, cell viability 72 h (Olaparib): > 10000 nM

Cell Line: PANC-08-13 (Pancreatic Carcinoma)
- IC50, cell viability 72 h (AZD2811): > 1000 nM
- IC50, cell viability 72 h (AZD5991): > 1000 nM
- IC50, cell viability 72 h (Gefitinib): > 10000 nM
- IC50, cell viability 72 h (AZD5153): 350 nM
- IC50, cell viability 72 h (SN-38): > 300 nM
- IC50, cell viability 72 h (Lapatinib): > 10000 nM
- IC50, cell viability 72 h (Prexasertib): 460 nM
- IC50, cell viability 72 h (Doxorubicin): > 1000 nM
- IC50, cell viability 72 h (AZD7648): > 10000 nM
- IC50, cell viability 72 h (Venetoclax): > 1000 nM
- IC50, cell viability 72 h (Dasatinib): > 2000 nM
- IC50, cell viability 72 h (Crizotinib): > 10000 nM
- IC50, cell viability 72 h (Capivasertib): > 10000 nM
- IC50, cell viability 72 h (AZD6738): > 10000 nM
- IC50, cell viability 72 h (Taselisib): 6440 nM
- IC50, cell viability 72 h (AZD4320): > 1000 nM
- IC50, cell viability 72 h (AZD0156): > 3000 nM
- IC50, cell viability 72 h (Savolitinib): > 1000 nM
- IC50, cell viability 72 h (Selumetinib): > 10000 nM
- IC50, cell viability 72 h (Alisertib): > 10000 nM
- IC50, cell viability 72 h (SG3199): > 1 nM
- IC50, cell viability 72 h (AZD1390): > 300 nM
- IC50, cell viability 72 h (Trametinib): > 1000 nM
- IC50, cell viability 72 h (Palbociclib): > 10000 nM
- IC50, cell viability 72 h (AZD8186): > 3000 nM
- IC50, cell viability 72 h (AZD1775): > 3000 nM
- IC50, cell viability 72 h (Olaparib): > 10000 nM

Cell Line: SU-DHL-8 (B-Cell Non-Hodgkin's Lymphoma)
- IC50, cell viability 72 h (AZD2811): > 1000 nM
- IC50, cell viability 72 h (AZD5991): 144 nM
- IC50, cell viability 72 h (Gefitinib): > 10000 nM
- IC50, cell viability 72 h (AZD5153): 684 nM
- IC50, cell viability 72 h (SN-38): 3.04 nM
- IC50, cell viability 72 h (Lapatinib): > 10000 nM
- IC50, cell viability 72 h (Prexasertib): 7.48 nM
- IC50, cell viability 72 h (Doxorubicin): 107 nM
- IC50, cell viability 72 h (AZD7648): > 10000 nM
- IC50, cell viability 72 h (Venetoclax): > 1000 nM
- IC50, cell viability 72 h (Dasatinib): > 2000 nM
- IC50, cell viability 72 h (Crizotinib): > 10000 nM
- IC50, cell viability 72 h (Capivasertib): > 10000 nM
- IC50, cell viability 72 h (AZD6738): 2060 nM
- IC50, cell viability 72 h (Taselisib): > 10000 nM
- IC50, cell viability 72 h (AZD4320): 38.7 nM
- IC50, cell viability 72 h (AZD0156): > 3000 nM
- IC50, cell viability 72 h (Savolitinib): > 1000 nM
- IC50, cell viability 72 h (Selumetinib): > 10000 nM
- IC50, cell viability 72 h (Alisertib): 6600 nM
- IC50, cell viability 72 h (SG3199): > 1 nM
- IC50, cell viability 72 h (AZD1390): > 300 nM
- IC50, cell viability 72 h (Trametinib): > 1000 nM
- IC50, cell viability 72 h (Palbociclib): > 10000 nM
- IC50, cell viability 72 h (AZD8186): > 3000 nM
- IC50, cell viability 72 h (AZD1775): 155 nM
- IC50, cell viability 72 h (Olaparib): > 10000 nM

Cell Line: TC-71 (Ewing's Sarcoma)
- IC50, cell viability 72 h (MK-2206): > 10000 nM
- IC50, cell viability 72 h (AZD2811): 114 nM
- IC50, cell viability 72 h (AZD5991): > 1000 nM
- IC50, cell viability 72 h (Gefitinib): > 10000 nM
- IC50, cell viability 72 h (AZD5153): 224 nM
- IC50, cell viability 72 h (SN-38): 2.21 nM
- IC50, cell viability 72 h (Lapatinib): > 10000 nM
- IC50, cell viability 72 h (Prexasertib): 50.4 nM
- IC50, cell viability 72 h (Doxorubicin): 812 nM
- IC50, cell viability 72 h (AZD7648): > 10000 nM
- IC50, cell viability 72 h (Venetoclax): > 1000 nM
- IC50, cell viability 72 h (Dasatinib): > 2000 nM
- IC50, cell viability 72 h (Crizotinib): 6700 nM
- IC50, cell viability 72 h (Capivasertib): > 10000 nM
- IC50, cell viability 72 h (AZD6738): 2740 nM
- IC50, cell viability 72 h (Taselisib): 4200 nM
- IC50, cell viability 72 h (AZD4320): 278 nM
- IC50, cell viability 72 h (AZD0156): > 3000 nM
- IC50, cell viability 72 h (Savolitinib): > 1000 nM
- IC50, cell viability 72 h (Selumetinib): > 10000 nM
- IC50, cell viability 72 h (Alisertib): 1030 nM
- IC50, cell viability 72 h (SG3199): > 1 nM
- IC50, cell viability 72 h (AZD1390): > 300 nM
- IC50, cell viability 72 h (Trametinib): > 1000 nM
- IC50, cell viability 72 h (Palbociclib): > 10000 nM
- IC50, cell viability 72 h (AZD8186): > 3000 nM
- IC50, cell viability 72 h (AZD1775): 1310 nM
- IC50, cell viability 72 h (Olaparib): > 10000 nM
